Target: S. pneumoniae Topoisomerase IV ATPase (ParE) (Streptococcus pneumoniae serotype 4, UniProt Q59961)
Experiment: S. pneumoniae Topoisomerase IV ATPase inhibition
Type: biochemical
Conditions: values marked * are an average of two or more data points, read-out: % Inh (13 μM) of S. pneumoniae Topoisomerase IV ATPase
Method in brief: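 S. pneumoniae ParE (1.25 nM) ATPase with 160 μM ATP and 5 μg/ml sheared DNA in pH 8.0 Tris, Mg2+, DTT, Brij-35; phosphate detected by malachite green/molybdate at 650 nm. Normalised to 2% DMSO (0%) and 20 μM EDTA (100%); IC50 from 10 concentrations.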

Sequence of S. pneumoniae Topoisomerase IV ATPase (ParE) (Q59961 whole entry): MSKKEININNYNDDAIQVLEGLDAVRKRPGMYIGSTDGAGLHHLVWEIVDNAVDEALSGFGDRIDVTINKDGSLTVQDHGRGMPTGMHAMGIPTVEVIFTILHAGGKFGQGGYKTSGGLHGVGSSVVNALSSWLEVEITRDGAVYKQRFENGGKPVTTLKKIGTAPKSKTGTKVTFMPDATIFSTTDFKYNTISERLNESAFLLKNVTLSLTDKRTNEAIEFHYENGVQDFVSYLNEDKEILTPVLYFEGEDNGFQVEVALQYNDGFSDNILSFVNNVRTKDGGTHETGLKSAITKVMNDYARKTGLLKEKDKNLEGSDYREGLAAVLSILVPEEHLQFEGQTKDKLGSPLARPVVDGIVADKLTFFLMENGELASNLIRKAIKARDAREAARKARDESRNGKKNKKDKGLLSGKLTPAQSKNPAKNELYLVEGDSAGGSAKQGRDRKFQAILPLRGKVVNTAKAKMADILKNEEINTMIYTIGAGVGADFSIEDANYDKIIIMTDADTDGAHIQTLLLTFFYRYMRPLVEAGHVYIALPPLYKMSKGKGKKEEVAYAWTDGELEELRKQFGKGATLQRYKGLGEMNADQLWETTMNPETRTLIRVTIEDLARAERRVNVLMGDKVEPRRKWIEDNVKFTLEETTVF

Going from `Cc1cnc(C(=O)NCCCNc2nc(Nc3ccc(F)c(Cl)c3)ncc2-c2cccc(/C=C/C(=O)O)c2)cn1` [Example 292, (E)-3-(3-(2-(3-chloro-4-fluorophenylamino)-4-(3-(5-methylpyrazine-2-carboxamido)propylamino)-pyrimidin-5-yl)phenyl)acrylic acid] to `CC(C)(C)OC(=O)NCCNc1nc(Nc2ccc(F)c(Cl)c2)ncc1-c1cncc(C(=O)O)c1` [Example 225, 5-[4-(2-tert-Butoxycarbonylamino-ethylamino)-2-(3-chloro-4-fluoro-phenylamino)-pyrimidin-5-yl]-nicotinic acid], the inhibition at 13 µM rises from 81% to 81.1%.

Going from `COc1cc(-c2cnc(Nc3ccc(F)c(Cl)c3)nc2NCCCN(C)C)cc(OC)n1` [Example 8, N^2-(3-chloro-4-fluorophenyl)-5-(2,6-dimethoxypyridin-4-yl)-N^4-(3-(dimethylamino)propyl)-pyrimidin-2,4-diamine] to `CCOC(=O)c1cncc(-c2cnc(Nc3ccc(F)c(Cl)c3)nc2NCCCN(C)C)c1` [Example 5, ethyl 5-(2-(3-chloro-4-fluorophenylamino)-4-(3-(dimethylamino)propylamino)pyrimidin-5-yl) nicotinate], the inhibition at 13 µM rises from 87.6% to 104%.

Compared with `O=C(O)c1cncc(-c2cnc(Nc3ccc4c(c3)CCC4)nc2-n2ccc(C(F)(F)F)n2)c1` [Example 668, 5-{2-(2,3-dihydro-1H-inden-5-ylamino)-4-[3-(trifluoromethyl)-1H-pyrazol-1-yl]pyrimidin-5-yl}pyridine-3-carboxylic acid], `O=C(O)c1cncc(-c2cnc(Nc3cccc(Cl)c3)nc2-n2ccc(C(F)(F)F)n2)c1` [Ex 745, 5-{2-[(3-chlorophenyl)amino]-4-[3-(trifluoromethyl)-1H-pyrazol-1-yl]pyrimidin-5-yl}pyridine-3-carboxylic acid] is higher in inhibition at 13 µM: 85% for the first, 100% for the second.

`COc1cc(Nc2ncc(-c3cc(C(=O)O)c(=O)n(CCS(C)(=O)=O)c3)c(-n3nc(C(F)(F)F)cc3C)n2)cc(OC)c1` [Example 1097, 5-(2-(3,5-Dimethoxyphenylamino)-4-(5-methyl-3-(trifluoromethyl)-1H-pyrazol-1-yl)pyrimidin-5-yl)-1-(2-(methylsulfonyl)ethyl)-2-oxo-1,2-dihydropyridine-3-carboxylic acid] and `CCS(=O)(=O)NC(=O)c1cc(-c2cnc(Nc3cc(C)cc(C)c3)nc2-n2nc(C(F)(F)F)cc2C)cnc1OC` [Example 823] are the same in inhibition at 13 µM: 100% for the first, 100% for the second.

Going from `Fc1ccc(Nc2ncc(-c3cncnc3)c(N3CCOCC3)n2)cc1Cl` [Example 76, N-(3-chloro-4-fluorophenyl)-4-morpholin-5,5′-bipyrimidin-2-amine] to `O=C(O)c1cccc(-c2cnc(Nc3ccc(F)c(Cl)c3)nc2N2CCOCC2)c1` [Example 487, 3-{2-[(3-chloro-4-fluorophenyl)amino]-4-(morpholin-4-yl)pyrimidin-5-yl}benzoic acid], the inhibition at 13 µM rises from 79.3% to 84%.

Going from `O=C(O)c1coc2ccc(-c3cnc(Nc4ccc(F)c(Cl)c4)nc3N3CCOCC3)cc2c1=O` [Example 459, 6-(2-(3-chloro-4-fluorophenylamino)-4-morpholinopyrimidin-5-yl)-4-oxo-4H-chromene-3-carboxylic acid] to `COc1cc(Nc2ncc(-c3cncc(C(=O)O)c3)c(N3CCOCC3)n2)ccc1F` [Example 441], the inhibition at 13 µM falls from 100% to 74%.

Compared with `Cc1cc(C(F)(F)F)nn1-c1nc(Nc2cccc(C#N)c2)ncc1-c1cccc(/C=C/C(=O)O)c1` [Example 693, (2E)-3-(3-{2-[(3-cyanophenyl)amino]-4-[5-methyl-3-(trifluoromethyl)-1H-pyrazol-1-yl]pyrimidin-5-yl}phenyl)prop-2-enoic acid], `Cc1cccc(Nc2ncc(-c3cccc(/C=C/C(=O)O)c3)c(-n3nc(C(F)(F)F)cc3C)n2)c1` [Example 695, (2E)-3-(3-{2-[(3-methylphenyl)amino]-4-[5-methyl-3-(trifluoromethyl)-1H-pyrazol-1-yl]pyrimidin-5-yl}phenyl)prop-2-enoic acid] is higher in inhibition at 13 µM: 97% for the first, 100% for the second.

Going from `COc1cc(Nc2ncc(-c3ccc4c(c3)C(=O)NS4(=O)=O)c(-n3ccc(C(F)(F)F)n3)n2)cc(OC)c1` [Example 831, 5-{2-[(3,5-dimethoxyphenyl)amino]-4-[3-(trifluoromethyl)-1H-pyrazol-1-yl]pyrimidin-5-yl}-1,2-benzothiazol-3(2H)-one 1,1-dioxide] to `NC(=O)c1cccc(Nc2ncc(-c3cccc(/C=C/C(=O)O)c3)c(-n3ccc(C(F)(F)F)n3)n2)c1` [Example 690, (2E)-3-(3-{2-[(3-carbamoylphenyl)amino]-4-[3-(trifluoromethyl)-1H-pyrazol-1-yl]pyrimidin-5-yl}phenyl)prop-2-enoic acid], the inhibition at 13 µM rises from 89% to 100%.

Compared with `N#Cc1cc(Cl)cc(Nc2ncc(-c3cccc(/C=C/C(=O)O)c3)c(N3CCOCC3)n2)c1` [Example 408, (E)-3-{3-[2-(3-Chloro-5-cyano-phenylamino)-4-morpholin-4-yl-pyrimidin-5-yl]-phenyl}-acrylic acid], `CCOC(=O)c1cncc(-c2cnc(Nc3ccc(F)c(Cl)c3)nc2N[C@@H]2CCOC2)c1` [Example 146, (R)-ethyl 5-(2-(3-chloro-4-fluorophenylamino)-4-(tetrahydrofuran-3-ylamino)pyrimidin-5-yl)nicotinate] is lower in inhibition at 13 µM: 100% for the first, 79.7% for the second.

Going from `Cc1cc(C(F)(F)F)nn1-c1nc(Nc2ccc(F)c(Cl)c2)ncc1-c1cnc(OC(C)c2ccncc2)c(C(=O)O)c1` (stereo not drawn) [Example 791, 5-{2-[(3-chloro-4-fluorophenyl)amino]-4-[5-methyl-3-(trifluoromethyl)-1H-pyrazol-1-yl]pyrimidin-5-yl}-2-[1-(pyridin-4-yl)ethoxy]pyridine-3-carboxylic acid] to `COCCNc1ncc(-c2cnc(Nc3ccc(F)c(Cl)c3)nc2-n2nc(C(F)(F)F)cc2C)cc1C(=O)O` [Example 1080, 5-(2-(3-Chloro-4-fluorophenylamino)-4-(5-methyl-3-(trifluoromethyl)-1H-pyrazol-1-yl)pyrimidin-5-yl)-2-(2-methoxyethylamino)nicotinic acid], the inhibition at 13 µM rises from 97% to 100%.

First: CN(C)CCCNc1nc(Nc2ccc(F)c(Cl)c2)ncc1-c1cc2ccccc2o1 [Example 9, 5-(benzofuran-2-yl)-N^2-(3-chloro-4-fluorophenyl)-N^4-(3-(dimethylamino)propyl)pyrimidine-2,4-diamine]
Second: NC(=O)c1cncc(-c2cnc(Nc3ccc(F)c(Cl)c3)nc2NCCc2cccnc2)c1 [Example 473, 5-(2-[(3-chloro-4-fluorophenyl)amino]-4-{[2-(pyridin-3-yl)ethyl]amino}pyrimidin-5-yl)-pyridine-3-carboxamide]
The inhibition at 13 µM of the first is lower: 60% for the first, 62% for the second.

First: COc1ncc(-c2cnc(Nc3cc(C)cc(C)c3)nc2-n2ccc(C(F)(F)F)n2)cc1C(=O)NS(=O)(=O)CCCN1CCOCC1 [Example 828, 5-{2-[(3,5-dimethylphenyl)amino]-4-[3-(trifluoromethyl)-1H-pyrazol-1-yl]pyrimidin-5-yl}-2-methoxy-N-{[3-(morpholin-4-yl)propyl]sulfonyl}pyridine-3-carboxamide]
Second: CCOC(=O)c1cncc(-c2cnc(Nc3ccc(F)c(Cl)c3)nc2NCc2ccncc2)c1 [Example 97, 5-{2-(3-Chloro-4-fluoro-phenylamino)-4-[(pyridin-4-ylmethyl)-amino]-pyrimidin-5-yl}-nicotinic acid ethyl ester]
The inhibition at 13 µM of the first is higher: 100% for the first, 75.9% for the second.

From US20100137313A1 (ASTRAZENECA AB, priority 2008, published 2010)
